Key:
[1] = system: HBV viral load in AD38 cells; assay: Viral load production in AD38 cells, quantitative PCR of the core sequence in supernatant; format: cell-based; settings: 10 μM compound, 6 days at 37° C., supernatant qPCR, relative to DMSO control; for activity at 10 µM: Hepatitis B virus, 144 h, read-out: AD38 Viral Load (%) (VL with cmpd/VL in DMSO control) at 10 μM
AD38 cells = assay: Viability of AD38 cells (Promega CellTiter-Glo); format: cell-based; settings: 10 μM compound, 6 days, CellTiter-Glo luminescence normalized to DMSO control (100%)
In short: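 After 6 days of compound exposure at 37° C (compound added as 10× solution in 10% DMSO; 50,000 cells/well, collagen-coated), medium was replaced with tetracycline-free DMEM/F12, 2% FBS, 1% DMSO. CellTiter-Glo luminescence was then recorded and normalized to DMSO-treated wells as 100% viability.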

SMILES: O=C(NCc1cnc(-c2ccc3cnccc3c2)s1)c1ccc2c(c1)NC(=O)c1ccccc1O2 [compound 1832]
- activity at 10 µM [1]: 14.1%
- AD38 Viability Normalized Result (cmpd/DMSO %) at 10 μM (AD38 cells): 98%

SMILES: N#Cc1cccc(-c2ncc(CNC(=O)c3ccc4c(c3)NC(=O)c3ccccc3O4)s2)c1 [1714-A]
- activity at 10 µM [1]: 49.2%
- AD38 Viability Normalized Result (cmpd/DMSO %) at 10 μM (AD38 cells): 106%

SMILES: O=C(NCc1cnc(-c2ccc(O)cc2)s1)c1ccc2c(c1)NC(=O)c1cc(F)ccc1S2 [compound 1746]
- activity at 10 µM [1]: 5.6%
- AD38 Viability Normalized Result (cmpd/DMSO %) at 10 μM (AD38 cells): 92%

SMILES: O=C(NCc1cnc(-c2ccc3[nH]cnc3c2)s1)c1ccc2c(c1)NC(=O)c1ccccc1O2 [compound 1695]
- activity at 10 µM [1]: 22.9%
- AD38 Viability Normalized Result (cmpd/DMSO %) at 10 μM (AD38 cells): 102%

SMILES: O=C(O)CNc1ncc(CNC(=O)c2ccc3c(c2)NC(=O)c2ccccc2O3)s1 [compound 1615, (5-((11-oxo-10, 11-dihydrodibenzo [b, f] [1, 4]oxazepine-8-carboxamido)methyl)thiazol-2-yl) glycine]
- activity at 10 µM [1]: 54.9%
- AD38 Viability Normalized Result (cmpd/DMSO %) at 10 μM (AD38 cells): 103%

SMILES: Cc1c(C(=O)NCc2cnc(-n3cccn3)s2)ccc2c1NC(=O)c1ccccc1S2(=O)=O [compound 11074]
- AD38 Viral Load (%) (VL with cmpd/VL in DMSO control) at 10 μM [1]: 0.6%
- AD38 Viability Normalized Result (cmpd/DMSO %) at 10 μM (AD38 cells): 103%

SMILES: CCOC(=O)/C=C/c1cnn(-c2ncc(CNC(=O)c3ccc4c(c3)NC(=O)c3ccccc3S4(=O)=O)s2)c1 [compound 11118]
- activity at 10 µM [1]: 1.9%
- AD38 Viability Normalized Result (cmpd/DMSO %) at 10 μM (AD38 cells): 95%

SMILES: CC(C)(C)c1ncc(CNC(=O)c2ccc3c(c2)NC(=O)c2ccccc2S3)s1 [compound 1555]
- activity at 10 µM [1]: 1%
- AD38 Viability Normalized Result (cmpd/DMSO %) at 10 μM (AD38 cells): 89%

SMILES: O=C(NCc1cnc(-c2cncs2)s1)c1ccc2c(c1)NC(=O)c1ccccc1S2(=O)=O [compound 1956]
- activity at 10 µM [1]: 2.3%
- AD38 Viability Normalized Result (cmpd/DMSO %) at 10 μM (AD38 cells): 88%

SMILES: Cc1c(C(=O)NCc2cnc(-n3cc(C(F)(F)F)cn3)s2)ccc2c1NC(=O)c1ccccc1S2(=O)=O [compound 11149]
- activity at 10 µM [1]: 0.2%
- AD38 Viability Normalized Result (cmpd/DMSO %) at 10 μM (AD38 cells): 100%

SMILES: N#Cc1ccc(-c2ncc(CNC(=O)c3ccc4c(c3)NC(=O)c3ccccc3S4(=O)=O)s2)c(Cl)c1 [compound 1816]
- activity at 10 µM [1]: 0.2%
- AD38 Viability Normalized Result (cmpd/DMSO %) at 10 μM (AD38 cells): 82%

SMILES: O=C(NCc1cnc(-c2ccc3ncccc3c2)s1)c1ccc2c(c1)NC(=O)c1ccccc1O2 [compound 1831]
- activity at 10 µM [1]: 3.8%
- AD38 Viability Normalized Result (cmpd/DMSO %) at 10 μM (AD38 cells): 112%

SMILES: Cc1c(C(=O)NCc2cnc(-n3cccn3)s2)ccc2c1NC(=O)c1ccccc1S2 [C20-02]
- activity at 10 µM [1]: 0.5%
- AD38 Viability Normalized Result (cmpd/DMSO %) at 10 μM (AD38 cells): 95%

SMILES: CCN(CC)CCCCc1cnn(-c2ncc(CNC(=O)c3ccc4c(c3)NC(=O)c3ccccc3S4(=O)=O)s2)c1 [compound 11100]
- activity at 10 µM [1]: 6.8%
- AD38 Viability Normalized Result (cmpd/DMSO %) at 10 μM (AD38 cells): 102%

SMILES: C=CCN1c2ccc(C(=O)NCc3cnc(-c4ccc(C#N)cc4)s3)cc2NC(=O)c2ccccc21 [compound 1921]
- activity at 10 µM [1]: 1.2%
- AD38 Viability Normalized Result (cmpd/DMSO %) at 10 μM (AD38 cells): 101%

SMILES: O=C(NCc1scnc1C(F)(F)F)c1ccc2c(c1)NC(=O)c1ccccc1S2 [compound 1431]
- activity at 10 µM [1]: 5.5%
- AD38 Viability Normalized Result (cmpd/DMSO %) at 10 μM (AD38 cells): 103%

SMILES: CN(C)CCC#Cc1ccc(-c2ncc(CNC(=O)c3ccc4c(c3)NC(=O)c3ccccc3S4(=O)=O)s2)cc1 [compound 11003, N-((2-(4-(4-(dimethylamino)but-1-yn-1-yl)phenyl)thiazol-5-yl)methyl)-11-oxo-10, 11-dihydrodibenzo [b, f] [1, 4] thiazepine-8-carboxamide 5,5-dioxide]
- activity at 10 µM [1]: 0.3%
- AD38 Viability Normalized Result (cmpd/DMSO %) at 10 μM (AD38 cells): 97%

SMILES: CCN(CC)CCC(C)Oc1ccc(-c2ncc(CNC(=O)c3ccc4c(c3)NC(=O)c3ccccc3S4(=O)=O)s2)cc1 (stereo not shown) [compound 11101]
- activity at 10 µM [1]: 1.9%
- AD38 Viability Normalized Result (cmpd/DMSO %) at 10 μM (AD38 cells): 85%

SMILES: CS(=O)(=O)c1ccc(-c2ncc(CNC(=O)c3ccc4c(c3)NC(=O)c3ccccc3O4)s2)cc1 [compound 1861]
- activity at 10 µM [1]: 5.9%
- AD38 Viability Normalized Result (cmpd/DMSO %) at 10 μM (AD38 cells): 94%

SMILES: O=C(NCc1cnc(-c2ccc(OCCCN3CCC3)cc2)s1)c1ccc2c(c1)NC(=O)c1ccccc1S2(=O)=O [compound 11142]
- AD38 Viral Load (%) (VL with cmpd/VL in DMSO control) at 10 μM [1]: 0.8%
- AD38 Viability Normalized Result (cmpd/DMSO %) at 10 μM (AD38 cells): 87%

SMILES: Cl.NCCCOc1ccc(-c2ncc(CNC(=O)c3ccc4c(c3)NC(=O)c3ccccc3S4(=O)=O)s2)cc1 [compound 1988, N-((2-(4-(3-aminopropoxy)phenyl)thiazol-5-yl)methyl)-11-oxo-10, 11-dihydrodibenzo [b, f] [1, 4] thiazepine-8-carboxamide 5,5-dioxide hydrochloride]
- activity at 10 µM [1]: 1.3%
- AD38 Viability Normalized Result (cmpd/DMSO %) at 10 μM (AD38 cells): 103%

SMILES: Cc1ncc(CNC(=O)c2ccc3c(c2)NC(=O)c2ccccc2O3)s1 [compound 1557]
- activity at 10 µM [1]: 0.6%
- AD38 Viability Normalized Result (cmpd/DMSO %) at 10 μM (AD38 cells): 98%

SMILES: O=C(NCc1cnc(-c2ccccc2)s1)c1ccc2c(c1)NC(=O)c1ccccc1O2 [compound 1562]
- activity at 10 µM [1]: 0.9%
- AD38 Viability Normalized Result (cmpd/DMSO %) at 10 μM (AD38 cells): 97%

SMILES: CN(C)c1ncc(-c2ncc(CNC(=O)c3ccc4c(c3)NC(=O)c3ccccc3S4(=O)=O)s2)cn1 [compound 1675]
- activity at 10 µM [1]: 2.3%
- AD38 Viability Normalized Result (cmpd/DMSO %) at 10 μM (AD38 cells): 115%

SMILES: CC(C)N(C)CC(O)COc1ccc(-c2ncc(CNC(=O)c3ccc4c(c3)NC(=O)c3ccccc3S4(=O)=O)s2)cc1 (stereo not shown) [compound 11087]
- activity at 10 µM [1]: 7.1%
- AD38 Viability Normalized Result (cmpd/DMSO %) at 10 μM (AD38 cells): 103%

SMILES: O=C(NCc1cnc(C(F)(F)F)s1)c1ccc2c(c1)NC(=O)c1ccccc1O2 [compound 1629]
- activity at 10 µM [1]: 3.2%
- AD38 Viability Normalized Result (cmpd/DMSO %) at 10 μM (AD38 cells): 107%

SMILES: Cc1cc2c(cc1C(=O)NCc1cnc(-c3ccc(O)cc3)s1)NC(=O)c1ccccc1S2 [compound 1758]
- activity at 10 µM [1]: 3.8%
- AD38 Viability Normalized Result (cmpd/DMSO %) at 10 μM (AD38 cells): 15%

SMILES: O=C(NCc1cnc(-c2ccc(O)cc2)s1)c1ccc2c(c1)NC(=O)c1ccc(F)cc1S2 [compound 1747]
- activity at 10 µM [1]: 3%
- AD38 Viability Normalized Result (cmpd/DMSO %) at 10 μM (AD38 cells): 95%

SMILES: N#Cc1ccc(-c2ncc(CNC(=O)c3ccc4c(c3)NC(=O)c3ccccc3N4CCO)s2)c(F)c1 [compound 11079]
- activity at 10 µM [1]: 3.3%
- AD38 Viability Normalized Result (cmpd/DMSO %) at 10 μM (AD38 cells): 102%

SMILES: O=C(NCc1cnc(N2CCS(=O)(=O)CC2)s1)c1ccc2c(c1)NC(=O)c1ccccc1S2(=O)=O [compound 1860]
- activity at 10 µM [1]: 7.5%
- AD38 Viability Normalized Result (cmpd/DMSO %) at 10 μM (AD38 cells): 98%

SMILES: Nc1ncc(CNC(=O)c2ccc3c(c2)NC(=O)c2ccccc2S3(=O)=O)s1 [compound 1529]
- activity at 10 µM [1]: 2%
- AD38 Viability Normalized Result (cmpd/DMSO %) at 10 μM (AD38 cells): 97%

SMILES: O=C(NCc1cnc(C(F)(F)F)s1)c1cc2c(cc1Cl)S(=O)(=O)c1ccccc1C(=O)N2 [compound 1934]
- activity at 10 µM [1]: 40%
- AD38 Viability Normalized Result (cmpd/DMSO %) at 10 μM (AD38 cells): 69%

SMILES: NC(=O)c1ccc(-c2ncc(CNC(=O)c3ccc4c(c3)NC(=O)c3ccccc3O4)s2)cc1 [compound 1770, N-((2-(4-carbamoylphenyl)thiazol-5-yl)methyl)-11-oxo-10, 11-dihydrodibenzo [b, f] [1, 4] oxazepine-8-carboxamide]
- activity at 10 µM [1]: 32.5%
- AD38 Viability Normalized Result (cmpd/DMSO %) at 10 μM (AD38 cells): 77%

SMILES: O=C(NCc1cnc(N2CCC(O)CC2)s1)c1ccc2c(c1)NC(=O)c1ccccc1O2 [compound 1865]
- activity at 10 µM [1]: 1%
- AD38 Viability Normalized Result (cmpd/DMSO %) at 10 μM (AD38 cells): 94%

SMILES: Cl.NCc1ccc(-c2ncc(CNC(=O)c3ccc4c(c3)NC(=O)c3ccccc3S4(=O)=O)s2)cc1 [compound 1654, N-((2-(4-(aminomethyl)phenyl)thiazol-5-yl)methyl)-11-oxo-10, 11-dihydrodibenzo [b, f] [1, 4] thiazepine-8-carboxamide 5,5-dioxide hydrochloride]
- activity at 10 µM [1]: 0.5%
- AD38 Viability Normalized Result (cmpd/DMSO %) at 10 μM (AD38 cells): 94%

SMILES: N#Cc1ccc(-c2ncc(CNC(=O)c3ccc4c(c3)NC(=O)c3ccccc3O4)s2)cc1 [1770-A, N-((2-(4-cyanophenyl)thiazol-5-yl)methyl)-11-oxo-10, 11-dihydrodibenzo [b, f] [1, 4] oxazepine-8-carboxamide]
- activity at 10 µM [1]: 29.8%
- AD38 Viability Normalized Result (cmpd/DMSO %) at 10 μM (AD38 cells): 100%

SMILES: O=C(NCc1cnc(-c2ccc(F)cc2)s1)c1ccc2c(c1)NC(=O)c1ccccc1O2 [compound 1561]
- activity at 10 µM [1]: 10.3%
- AD38 Viability Normalized Result (cmpd/DMSO %) at 10 μM (AD38 cells): 96%

SMILES: Cc1c(C(=O)NCc2cnc(C(F)(F)F)s2)cc(Br)c2c1NC(=O)c1ccccc1S2 [compound 1914]
- activity at 10 µM [1]: 120%
- AD38 Viability Normalized Result (cmpd/DMSO %) at 10 μM (AD38 cells): 77%

SMILES: CC(C)c1cnn(-c2ncc(CNC(=O)c3ccc4c(c3)NC(=O)c3ccccc3S4(=O)=O)s2)c1 [11117-A]
- activity at 10 µM [1]: 0.3%
- AD38 Viability Normalized Result (cmpd/DMSO %) at 10 μM (AD38 cells): 110%

SMILES: CN1CC[C@H](Oc2ccc(-c3ncc(CNC(=O)c4ccc5c(c4)NC(=O)c4ccccc4S5(=O)=O)s3)cc2)C1 [compound 11134, (S)—N-((2-(4-((1-methylpyrrolidin-3-yl)oxy)phenyl)thiazol-5-yl)methyl)-11-oxo-10, 11-dihydrodibenzo [b, f] [1, 4] thiazepine-8-carboxamide 5,5-dioxide]
- activity at 10 µM [1]: 1.4%
- AD38 Viability Normalized Result (cmpd/DMSO %) at 10 μM (AD38 cells): 90%

SMILES: Cl.O=C(NCc1cnc(-c2ccc(N3CCNCC3)nc2)s1)c1ccc2c(c1)NC(=O)c1ccccc1S2(=O)=O [compound 11019, 11-oxo-N-((2-(6-(piperazin-1-yl)pyridin-3-yl)thiazol-5-yl)methyl)-10, 11-dihydrodibenzo [b, f] [1, 4] thiazepine-8-carboxamide 5,5-dioxide hydrochloride]
- activity at 10 µM [1]: 14.3%
- AD38 Viability Normalized Result (cmpd/DMSO %) at 10 μM (AD38 cells): 93%

From patent publication US11814376B2, “Hepatitis b core protein modulators” (Assembly Biosciences, Inc., priority 2015, dated 2023)
